Drawing on patent US20090069441A1, “Motuporamine Mimic Agents” (priority 2006, published 2009), this text covers inhibition and IC50 for two compounds.

Like-named read-outs stand apart in the source and are kept apart here.

Assay [1] has as its system Drosophila imaginal leg discs. Briefly: Imaginal disc eversion assay. The assay is classed as cell-based, Drosophila melanogaster. The settings on record: Drosophila melanogaster, 15 hr incubation in Robb's medium. The protocol: DihydroMotuporamine C, 4a, was used to develop an imaginal disc assay in Drosophila flies. The imaginal leg discs were collected by microscopic dissection from maggots. […] Inhibition was measured as failure of the disc to fully develop into a fly leg after 15 hr of incubation in Robb's growth medium. This presumably occurs by overactivation of Rho, an important signaling pathway in development. Hyper-stimulation of this pathway is sufficient to block development of the fly leg.
Fly Stocks: 20 female and 5 male wild type Oregon variant of Drosophila melanogaster interbred in blue food medium for 24 hours then flies are removed. Third instar wall-crawling larvae collected then dissected on the sixth day. Flies kept in 25° C. incubation chamber.
Blue Food Preparation: Standard corn meal medium heated then mixed completely with aqueous 1% Bromophenol Blue. The food medium is cooled for one day or more before use.
Dissection Medium: Ringer's Buffer with 10 uL 0.1% BSA. Ringer's Medium consists of 130 mM NaCl, 5 mM KCl, 1.5 mM CaCl2-2H2O, Stored at room temperature (23° C.), BSA added before dissection.
Cultivation Medium: Minimal Robb's Medium with 10 uL 0.1% BSA. Minimal Robb's Medium consists of 40 mM KCl, 0.4 mM KH2PO4, 40 mM NaCl, 0.4 mM NaH2PO4.7H2O, 1.2 mM MgSO4.7H2O, 1.2 mM MgCl2-6H2O, 1 mM CaCl2-2H2O, 10 mM Glucose, 0.2 mM L-asparagine, 4.0 mM L-glutamine, 0.16 mM Glycine, 0.64 mM L-leucine, 0.32 mM L-proline, 0.16 mM R-Serine, 0.64 mM L-valine. Stored at −25° C. One day before dissection, aliquot defrosted in 4° C. Add BSA then warmed to room temperature (23° C.) before dissection.
0.1% BSA: 0.1 g BSA fraction V (Sigma#A-9647) in 10 mL distilled H2O, Stored at 4° C.
Developmental Hormone: 1 mg 20-hydroxyecdysone (Sigma #H-5142) in 1 mL 100% Ethanol. Stored at −25° C. Before use, stock is diluted 10× (1 mL added to 9 mL of 100% Ethanol). 10 μL of diluted 20-hydroxyecdysone is added to culture.
Dissection Procedures: Third instar larvae are removed from cultivation bottle with a wetted brush and washed in dH2O to remove food medium clinging to larvae. The cleaned larvae are dissected in Ringer's Medium using forceps. The imaginal discs are washed in fresh Ringer's Medium, and then cultivated with 1 mL of Robb's Medium in 12-well culture plate. Each culture well should have 30˜40 imaginal discs.
Culturing Procedures: In a larger container, place the 12-well culture plate on a moist towel, then seal the large container. Cultivate at 25° C. for 15 hours. Evaluation: Three categories will be used to grade the eversion of each imaginal disc. Full Eversion—the leg is fully extended from the disc. Partial Eversion—the leg is protruding from the epithelial. No Eversion—no sign of any protrusion.

For another assay, the system named is L1210 cells. The assay can be described thus: Cytotoxicity (cell growth, MTT) in L1210 cells. In kind it is cell-based, mouse. The settings on record: Mus musculus, read-out: L1210 IC50. From the text: In terms of Table 1, L1210 cells are mouse leukemia cells and are the gold standard in terms of evaluating polyamine cytotoxicity data due to a plethora of prior data in this cell line for other polyamine structures. Clearly 7a was similar in all respects to 4a (Table 1). […] The lower the Ki value, the higher the affinity of the drug for the polyamine transporter (PAT) on the cell surface. Chinese hamster ovary (CHO) cells and a mutant line without an active PAT (CHO-MG) also evaluated the PAT selectivity of these drugs.
Biological Evaluation. Once synthesized, the conjugates were screened for cytotoxicity in L1210, CHO and CHO-MG cells. L1210 (mouse leukemia) cells were selected to enable comparisons with the published IC50 and Ki values for a variety of polyamine substrates. Chinese Hamster Ovary (CHO) cells were chosen along with a mutant PAT deficient cell line (CHO-MG) in order to comment on selective transport via the PAT (Wang et al, J. Med. Chem. 2003, 46, 2663-2671; Wang et al, J. Med. Chem. 2003, 46, 2672-2682; Wang et al., J. Med. Chem. 2003, 46, 5129-5138; Delcros et al., J. Med. Chem., 2002, 45, 5098-5111).
L1210 IC50 and Ki studies. […] The Ki values in Table 3 were determined for [^14C]spermidine uptake and reflect the affinity of the polyamine derivative for the polyamine transporter on the cell surface. With both parameters, one can determine whether high affinity for the transporter (e.g., low Ki value) translated into high cytotoxicity (e.g., low IC50 value), etc.
Biological studies. Murine leukemia cells (L1210), CHO and CHO-MG cells were grown in RPMI medium supplemented with 10% fetal calf serum, glutamine (2 mM), penicillin (100 U/mL), streptomycin (50 μg/mL). L-Proline (2 μg/mL) was added to the culture medium for CHO-MG cells. Cells were grown at 37° C. under a humidified 5% CO2 atmosphere. Aminoguanidine (AG, 2 mM) was added to the culture medium to prevent oxidation of the drugs by the enzyme (bovine serum amine oxidase) present in calf serum. Trypan blue staining was used to determine cell viability before the initiation of a cytotoxicity experiment. Cells in early to mid log-phase were used. IC50 determinations. Cell growth was assayed in sterile 96-well microtiter plates (Becton-Dickinson, Oxnard, Calif., USA). L1210 cells were seeded at 5e^4 cells/mL of medium (100 μL/well). CHO and CHO-MG cells were plated at 2e^3 cells/mL. Drug solutions (10 μL per well) of appropriate concentration were added at the time of seeding for L1210 cells and after an overnight incubation for the CHO cell lines. After exposure to the drug for 48 hr, cell growth was determined by measuring formazan formation from 3-(4,5-dimethylthiazol-2-yl)2,5-diphenyltetrazolium using a Titertek Multiskan MCC/340 microplate reader for absorbance (540 nm) measurements (Mosmann, T., J. Immunol. Methods 1983, 65, 55-63).

Consider `NCCCCNCCCCNCc1c2ccccc2cc2ccccc12` [Compound 6b], for which, in assay [1], the inhibition at 18 µM turned out to be 97%. The half-inhibitory concentration (IC50) worked out at 0.3 µM in the assay on L1210 cells (L1210, in the presence of AG, 48 h at 37° C.) and 0.3 µM in the assay on L1210 cells (L1210 experiments, no added SPD).

As to `CCN(CCCNCCCN)Cc1c2ccccc2cc2ccccc12` [Compound 7a, N-(3-Amino-propyl)-N′-anthracen-9-ylmethyl-N′-ethyl-propane-1,3-diamine], in assay [1], the inhibition at 18 µM was found to be 95%. Moreover, the IC50 in the assay with L1210 cells (L1210, 48 h incubation, new data) came to 2.2 µM.
